Experimental data from EP4740948A1 (Dong Wha Pharm. Co., Ltd., priority 2023, dated 2025).

Assays:
Format in all cases: cell-based
SW-13 cells = assay: Cancer cell proliferation inhibition (Cell Counting Kit-8), adrenal cancer cell line; conditions: 1000 nM, cultured seven to 11 days
Protocol: (§1) In addition, as one example of solid cancer in which an overexpression of EZH2 and a consequent disease association therebetween is reported, a proliferation inhibitory activity of the 1,3-benzodioxole derivative compounds represented by chemical formula I of the present invention was evaluated in Lovo cells as a colorectal cancer cell line, SW-13 cells as an adrenal cancer cell line, MIA-PaCa-2 cells as a pancreatic cancer cell line, and NCI-H1299 cells as a lung cancer cell line.
(§2) Each cell line (G401 cell, MKN-45 cell, Lovo cell, SW-13 cell, MIA-PaCa-2, NCI-H1299) of Table 2 below was cultured using RPMI1640, McCoy's 5a, L-15 or DMEM containing 10% fetal bovine serum, and the cells were seeded into wells of a 96-well culture dish at 100 to 1,000 cells each, and a test substance 1000 nM was cultured for seven to 11 days after drug treatment. After the culture, the cells were measured according to a manufacturer's instructions using Cell Counting Kit-8, and a cell proliferation inhibitory effect (% inhibition rate) of the test substance was obtained.
(§3) The cell proliferation inhibitory effect (% inhibition rate) of the test substance was calculated using a following equation. % inhibition rate = {1−(testgroup/controlgroup)} X 100 [formula]

MIA-PaCa-2 cells = assay: Cancer cell proliferation inhibition (Cell Counting Kit-8), pancreatic cancer cell line; conditions: 1000 nM, cultured seven to 11 days
Protocol: as §1, §2, §3

MKN-45 cells = assay: Cancer cell proliferation inhibition (Cell Counting Kit-8), gastric cancer cell line; conditions: 1000 nM, cultured seven to 11 days
Text: (§4) Among solid cancer cells, in G401 cells in which expression of SMARCB1, which is a member of switch/sucrosenon-fermenting (SWI/SNF), is defective as a cell line of a rhabdoid tumor in which a therapeutic effect may be expected through dual inhibition of EZH1/2, and MKN-45 cells in which expression of ARID1A, which is a member of SWI/SNF, is defective as a gastric cancer cell line, a proliferation inhibitory ability of the 1,3-benzodioxole derivative compounds represented by chemical formula I of the present invention was evaluated.
as §2, §3

NCI-H1299 cells = assay: Cancer cell proliferation inhibition (Cell Counting Kit-8), lung cancer cell line; conditions: 1000 nM, cultured seven to 11 days
Protocol: as §1, §2, §3

G401 cells = assay: Cancer cell proliferation inhibition (Cell Counting Kit-8), rhabdoid tumor cell line; conditions: 1000 nM, cultured seven to 11 days; 1 µM
Text: as §4, §2, §3

Lovo cells = assay: Cancer cell proliferation inhibition (Cell Counting Kit-8), colorectal cancer cell line; conditions: 1000 nM, cultured seven to 11 days
Protocol: as §1, §2, §3

| SMILES | % inhibition rate SW-13 (SW-13 cells) | % inhibition rate MIA-Paca2 (MIA-PaCa-2 cells) | % inhibition rate MKN -45 (MKN-45 cells; 1 µM) | % inhibition rate NCI-H129 9 (NCI-H1299 cells) | % inhibition rate G401 (G401 cells) | % inhibition rate LoVo (Lovo cells; 1 µM) | % inhibition rate SW-13 (SW-13 cells; 1 µM) | % inhibition rate LoVo (Lovo cells) | % inhibition rate MKN -45 (MKN-45 cells) | % inhibition rate NCI-H129 9 (NCI-H1299 cells; 1 µM) | % inhibition rate MIA-Paca2 (MIA-PaCa-2 cells; 1 µM) |
| --- | --- | --- | --- | --- | --- | --- | --- | --- | --- | --- | --- |
| CSc1cc(C)[nH]c(=O)c1CNC(=O)c1cc(-c2ccc(N3C[C@@H](C)O[C@@H](C)C3)nc2)c2c(c1C)OC(C)(C1CCN(CC(F)(F)F)CC1)O2 (single isomer, unassigned) [Compound 45] | ++ (++: more than 30% and less than 70%) | + (+: ≤30%) | + (+: ≤30%) | ++ (++: more than 30% and less than 70%) | + (+: ≤30%) | ++ (++: more than 30% and less than 70%) |  |  |  |  |  |
| CSc1cc(C)[nH]c(=O)c1CNC(=O)c1cc(-c2ccc(N3C[C@@H](C)O[C@@H](C)C3)nc2)c2c(c1C)OC(C)(C1CCN(CC(F)F)CC1)O2 (single isomer, unassigned) [Compound 48] |  | + (+: ≤30%) | + (+: ≤30%) | ++ (++: more than 30% and less than 70%) | + (+: ≤30%) |  | + (+: ≤30%) | +++ (+++: ≥70%) |  |  |  |
| CCN1CCC(C2(C)Oc3c(-c4ccc(N5C[C@@H](C)O[C@@H](C)C5)nc4)cc(C(=O)NCc4c(SC)cc(C)[nH]c4=O)c(C)c3O2)CC1 (single isomer, unassigned) [Compound 50] |  | + (+: ≤30%) |  | ++ (++: more than 30% and less than 70%) | + (+: ≤30%) | + (+: ≤30%) | + (+: ≤30%) |  | + (+: ≤30%) |  |  |
| CSc1cc(C)[nH]c(=O)c1CNC(=O)c1cc(-c2ccc(N3C[C@@H](C)O[C@@H](C)C3)nc2)c2c(c1C)OC(C)(C1CCN(C(C)C)CC1)O2 (single isomer, unassigned) [Compound 52] |  | + (+: ≤30%) |  |  | + (+: ≤30%) | + (+: ≤30%) | + (+: ≤30%) |  | + (+: ≤30%) | + (+: ≤30%) |  |
| CSc1cc(C)[nH]c(=O)c1CNC(=O)c1cc(-c2ccc(N3C[C@@H](C)O[C@@H](C)C3)nc2)c2c(c1C)OC(C)(C1CCN(C3CCCCC3)CC1)O2 (single isomer, unassigned) [Compound 54] | ++ (++: more than 30% and less than 70%) | + (+: ≤30%) |  |  | ++ (++: more than 30% and less than 70%) | ++ (++: more than 30% and less than 70%) |  |  | + (+: ≤30%) | + (+: ≤30%) |  |
| CSc1cc(C)[nH]c(=O)c1CNC(=O)c1cc(-c2ccc(N3C[C@@H](C)O[C@@H](C)C3)nc2)c2c(c1C)OC(C)(C1CCN(CCc3ccccc3)CC1)O2 (single isomer, unassigned) [Compound 56] |  | + (+: ≤30%) | + (+: ≤30%) |  | ++ (++: more than 30% and less than 70%) |  | + (+: ≤30%) | +++ (+++: ≥70%) |  | + (+: ≤30%) |  |
| CSc1cc(C)[nH]c(=O)c1CNC(=O)c1cc(-c2ccc(N3C[C@@H](C)O[C@@H](C)C3)nc2)c2c(c1C)OC(C)(C1CCN(CCCC(F)(F)F)CC1)O2 (single isomer, unassigned) [Compound 58] |  |  | + (+: ≤30%) |  | + (+: ≤30%) | ++ (++: more than 30% and less than 70%) | + (+: ≤30%) |  |  | + (+: ≤30%) | + (+: ≤30%) |
| CSc1cc(C)[nH]c(=O)c1CNC(=O)c1cc(-c2ccc(N3C[C@@H](C)O[C@@H](C)C3)nc2)c2c(c1C)OC(C)(C1CCN(C(=O)C(F)(F)F)CC1)O2 (single isomer, unassigned) [Compound 60] |  | + (+: ≤30%) | + (+: ≤30%) |  | + (+: ≤30%) |  | + (+: ≤30%) | +++ (+++: ≥70%) |  | + (+: ≤30%) |  |
| CSc1cc(C)[nH]c(=O)c1CNC(=O)c1cc(-c2ccc(N3CCOCC3)nc2)c2c(c1C)OC(C)(C1CCN(CC(F)(F)F)CC1)O2 (single isomer, unassigned) [Compound 63, 2,4-dimethyl-N-((6-methyl-4-(methylthio)-2-oxo-1,2-dihydropyridin-3-yl)methyl)-7-(6-morpholinopyridin-3-yl)-2-(1-(2,2,2-trifluoro)piperidin-4-yl)benzo[d][1,3]dioxole-5-carboxamide] |  | + (+: ≤30%) |  |  | + (+: ≤30%) | ++ (++: more than 30% and less than 70%) | + (+: ≤30%) |  | ++ (++: more than 30% and less than 70%) | + (+: ≤30%) |  |
| CSc1cc(C)[nH]c(=O)c1CNC(=O)c1cc(-c2ccc(N3CCOCC3)nc2)c2c(c1C)OC(C)(C1CCN(CC(F)F)CC1)O2 (single isomer, unassigned) [Compound 65, 2-(1-(2,2-difluoroethyl)piperidin-4-yl)-2,4-dimethyl-N-((6-methyl-4-(methylthio)-2-oxo-1,2-dihydropyridin-3-yl)methyl)-7-(6-morpholinopyridin-3-yl)benzo[d][1,3]dioxole-5-carboxamide] |  | + (+: ≤30%) |  | + (+: ≤30%) | + (+: ≤30%) | ++ (++: more than 30% and less than 70%) | + (+: ≤30%) |  | ++ (++: more than 30% and less than 70%) |  |  |
| CCN1CCC(C2(C)Oc3c(-c4ccc(N5CCOCC5)nc4)cc(C(=O)NCc4c(SC)cc(C)[nH]c4=O)c(C)c3O2)CC1 (single isomer, unassigned) [Compound 67, 2-(1-ethylpiperidin-4-yl)-2,4-dimethyl-N-((6-methyl-4-(methylthio)-2-oxo-1,2-dihydropyridin-3-yl)methyl)-7-(6-morpholinopyridin-3-yl)benzo[d][1,3]dioxole-5-carboxamide] | + (+: ≤30%) | + (+: ≤30%) | + (+: ≤30%) | + (+: ≤30%) | + (+: ≤30%) | + (+: ≤30%) |  |  |  |  |  |
| CSc1cc(C)[nH]c(=O)c1CNC(=O)c1cc(-c2cnc(N3CCOCC3)nc2)c2c(c1C)OC(C)(C1CCN(CC(F)(F)F)CC1)O2 (single isomer, unassigned) [Compound 70, 2,4-dimethyl-N-((6-methyl-4-(methylthio)-2-oxo-1,2-dihydropyridin-3-yl)methyl)-7-(2-morpholinopyrimidine-5-yl)-2-(1-(2,2,2-trifluoro)piperidin-4-yl)benzo[d][1,3]dioxole-5-carboxamide] |  | + (+: ≤30%) |  | + (+: ≤30%) | + (+: ≤30%) |  | + (+: ≤30%) | +++ (+++: ≥70%) | ++ (++: more than 30% and less than 70%) |  |  |
| CSc1cc(C)[nH]c(=O)c1CNC(=O)c1cc(-c2cnc(N3CCOCC3)nc2)c2c(c1C)OC(C)(C1CCN(CC(F)F)CC1)O2 (single isomer, unassigned) [Compound 72, 2-(1-(2,2-difluoroethyl)piperidin-4-yl)-2,4-dimethyl-N-((6-methyl-4-(methylthio)-2-oxo-1,2-dihydropyridin-3-yl)methyl)-7-(2-morpholinopyrimidin-5-yl)benzo[d][1,3]dioxole-5-carboxamide] | ++ (++: more than 30% and less than 70%) | + (+: ≤30%) |  |  | + (+: ≤30%) |  |  | +++ (+++: ≥70%) | ++ (++: more than 30% and less than 70%) | + (+: ≤30%) |  |
| CCN1CCC(C2(C)Oc3c(-c4cnc(N5CCOCC5)nc4)cc(C(=O)NCc4c(SC)cc(C)[nH]c4=O)c(C)c3O2)CC1 (single isomer, unassigned) [Compound 74, 2-(1-ethylpiperidin-4-yl)-2,4-dimethyl-N-((6-methyl-4-(methylthio)-2-oxo-1,2-dihydropyridin-3-yl)methyl)-7-(2-morpholinopyrimidin-5-yl)benzo[d][1,3]dioxole-5-carboxamide] |  | + (+: ≤30%) | + (+: ≤30%) | + (+: ≤30%) | + (+: ≤30%) |  | + (+: ≤30%) | ++ (++: more than 30% and less than 70%) |  |  |  |
